From patent US20240383852A1, “ANTI-VIRAL COMPOUNDS” (INFEX Therapeutics Limited, priority 2021, published 2024)
pIC50: −log10 of the molar value. Structures can show the parent of a compound that is named as a salt.

Target: T1, SARS-CoV-2 PLpro (Severe acute respiratory syndrome coronavirus 2, UniProt P0DTD1)
T1 construct: containing 60 nM papain-like protease
Assay: biochemical
Details: 60 nM papain-like protease, 50 μM Z-RLRGG-AMC, pH 7.5, 37° C.; read-out: SARS-CoV-2 PLpro IC50

`Cc1ccc(-c2cccc(S(=O)(=O)N3CCNCC3)c2)cc1C(=O)N[C@H](C)c1cccc2ccccc12` [Example 152, 2-Methyl-N-[(1R)-1-(1-naphthyl)ethyl]-5-(3-piperazin-1-ylsulfonylphenyl)benzamide] was tested, and the pIC50 was over 4.00.

Compound `Cc1ccc(-c2ccncc2)cc1C(=O)N[C@H](C)c1cccc2ccccc12` [Example 139, 2-Methyl-N-[(1R)-1-(1-naphthyl)ethyl]-5-(4-pyridyl)benzamide] has a pIC50 of over 4.70.

For `C[C@@H](NC(=O)c1cc(-c2ccc(CN3CCN(C)CC3)cc2)ccc1Cl)c1cccc2ccccc12` [Example 145], the pIC50 was over 4.00.

With `Cc1ccc(N2CCCN(CCS(C)(=O)=O)CC2)cc1C(=O)N[C@H](C)c1cccc2ccccc12` [Example 177, 2-Methyl-5-[4-(2-methylsulfonylethyl)-1,4-diazepan-1-yl]-N-[(1R)-1-(1-naphthyl)ethyl]benzamide] the pIC50 was over 4.70.

With `C[C@@H](NC(=O)c1cc(C2CCNC2)cn1C)c1cccc2ccccc12` (stereo partly drawn) [Example 150, 1-Methyl-N-[(1R)-1-(1-naphthyl)ethyl]-4-pyrrolidin-3-yl-pyrrole-2-carboxamide] the pIC50 was over 4.00.

`C[C@@H](NC(=O)c1ccnc(N2CCN(CCO)CC2)n1)c1cccc2ccccc12` [Example 317, 2-[4-(2-Hydroxyethyl)piperazin-1-yl]-N-[(1R)-1-(1-naphthyl)ethyl]pyrimidine-4-carboxamide hydrochloride salt] was tested, and the pIC50 was under 4.00.

`Cc1ccc(N2CCN(C)CC2)cc1C(=O)N[C@H](C)c1cccc(-c2cccc(C(=O)O)c2)c1` [Example 83, 3-[3-[(1R)-1-[[2-Methyl-5-(4-methylpiperazin-1-yl)benzoyl]amino]ethyl]phenyl]benzoic Acid] was tested, and the pIC50 was over 5.30.

`C[C@@H](NC(=O)c1cc(C2=CCNC2)cn1C)c1cccc2ccccc12` [Example 149, 4-(2,5-Dihydro-1H-pyrrol-3-yl)-1-methyl-N-[(1R)-1-(1-naphthyl)ethyl]pyrrole-2-carboxamide Hydrochloride Salt] showed a pIC50 of over 4.00.

`C[C@@H](NC(=O)c1cccc(C2CCN(CCC(=O)O)CC2)c1)c1cccc2ccccc12` [Example 164, 3-[4-[3-[[(1R)-1-(1-Naphthyl)ethyl]carbamoyl]phenyl]-1-piperidyl]propanoic acid] showed a pIC50 of over 4.00.

Compound `C[C@@H](NC(=O)c1cc(N2CCN(CC(F)(F)F)CC2)ccc1Cl)c1cccc2ccccc12` [Example 131, 2-Chloro-N-[(1R)-1-(1-naphthyl)ethyl]-5-[4-(2,2,2-trifluoroethyl)piperazin-1-yl]benzamide] has a pIC50 of under 4.00.

For `C[C@@H](NC(=O)c1cccc(C2CCN(CCS(=O)(=O)c3ccccc3)CC2)c1)c1cccc2ccccc12` [Example 175, 3-[1-[2-(Benzenesulfonyl)ethyl]-4-piperidyl]-N-[(1R)-1-(1-naphthyl)ethyl]benzamide], the pIC50 was under 4.00.

`Cc1ccc(N2CC[C@H](O)C2)cc1C(=O)N[C@H](C)c1cccc2ccccc12` [Example 119, 5-[(3S)-3-Hydroxypyrrolidin-1-yl]-2-methyl-N-[(1R)-1-(1-naphthyl)ethyl]benzamide] was tested, and the pIC50 was over 4.00.

`Cc1ccc(N2CCN(C)CC2)cc1C(=O)N[C@H](C)c1cc(OCCO)cc(-c2cnn(C)c2)c1` [Example 281, N-[(1R)-1-[3-(2-Hydroxyethoxy)-5-(1-methylpyrazol-4-yl)phenyl]ethyl]-2-methyl-5-(4-methylpiperazin-1-yl)benzamide] was tested, and the pIC50 was over 5.70.

Work on `C[C@@H](NC(=O)c1ccnc(N2CC[C@H](N)C2)n1)c1cccc2ccccc12` [Example 318, 2-[(3S)-3-Aminopyrrolidin-1-yl]-N-[(1R)-1-(1-naphthyl)ethyl]pyrimidine-4-carboxamide] yielded a pIC50 of over 4.00.

In the case of `Cc1ccc(-c2ccccc2)cc1C(=O)N[C@H](C)c1cccc2ccccc12` [Example 5, 2-Methyl-N-[(1R)-1-(1-naphthyl)ethyl]-5-phenyl-benzamide], the pIC50 was under 4.00.

`Cc1ccc(N2CCN(C)CC2)cc1C(=O)N[C@H](C)c1cc(OCC2CC2)cc(-c2cnn(C)c2)c1` [Example 277, N-[(1R)-1-[3-(Cyclopropylmethoxy)-5-(1-methylpyrazol-4-yl)phenyl]ethyl]-2-methyl-5-(4-methylpiperazin-1-yl)benzamide] was tested, and the pIC50 was over 5.70.

Work on `Cc1ccc(N2CCN(S(C)(=O)=O)CC2)cc1C(=O)N[C@H](C)c1cccc2ccccc12` [Example 110, 2-Methyl-5-(4-methylsulfonylpiperazin-1-yl)-N-[(1R)-1-(1-naphthyl)ethyl]benzamide] yielded a pIC50 of under 4.00.

In the case of `Cc1ccc(N2CCN(C)CC2)cc1C(=O)N[C@H](C)c1cccc(C(=O)N2CCN(C)CC2)c1` [Example 307, 2-Methyl-N-[(1R)-1-[3-(4-methylpiperazine-1-carbonyl)phenyl]ethyl]-5-(4-methylpiperazin-1-yl)benzamide], the pIC50 was over 5.70.

`C[C@@H](NC(=O)c1cc(N2CCN(C)CC2)ccn1)c1cccc2ccccc12` [Example 14, 4-(4-Methylpiperazin-1-yl)-N-[(1R)-1-(1-naphthyl)ethyl]pyridine-2-carboxamide] showed a pIC50 of under 4.00.

With `COc1cc([C@@H](C)NC(=O)c2cc(N3CCN(C)CC3)ccc2C)ccc1O` [Example 305, N-[(1R)-1-(4-Hydroxy-3-methoxy-phenyl)ethyl]-2-methyl-5-(4-methylpiperazin-1-yl)benzamide] the pIC50 was over 5.30.

`Cc1ccc(-c2cccc(CCO)c2)cc1C(=O)N[C@H](C)c1cccc2ccccc12` [Example 142, 5-[3-(2-Hydroxyethyl)phenyl]-2-methyl-N-[(1R)-1-(1-naphthyl)ethyl]benzamide] was tested, and the pIC50 was under 4.00.

In the case of `Cc1ccc(N2CCN(C)CC2)cc1C(=O)N[C@H](C)c1cccc(-c2ccncc2)c1` [Example 51, 2-Methyl-5-(4-methylpiperazin-1-yl)-N-[(1R)-1-[3-(4-pyridyl)phenyl]ethyl]benzamide], the pIC50 was over 5.70.

In the case of `C[C@@H](NC(=O)c1ccnc(N2CC[C@@H](N)C2)n1)c1cccc2ccccc12` [Example 319, 2-[(3R)-3-Aminopyrrolidin-1-yl]-N-[(1R)-1-(1-naphthyl)ethyl]pyrimidine-4-carboxamide Hydrochloride Salt], the pIC50 was under 4.00.

Work on `Cc1ccc(-c2cccnc2)cc1C(=O)N[C@H](C)c1cccc2ccccc12` [Example 143, 2-Methyl-N-[(1R)-1-(1-naphthyl)ethyl]-5-(3-pyridyl)benzamide] yielded a pIC50 of over 4.70.

Compound `C[C@@H](NC(=O)c1cncc(N2CCN(C)CC2)n1)c1cccc2ccccc12` [Example 320, 6-(4-Methylpiperazin-1-yl)-N-[(1R)-1-(1-naphthyl)ethyl]pyrazine-2-carboxamide Hydrochloride Salt] has a pIC50 of over 4.00.

Work on `C[C@@H](NC(=O)c1cccc(C2CCN(CCS(C)(=O)=O)CC2)c1)c1cccc2ccccc12` [Example 176, 3-[1-(2-Methylsulfonylethyl)-4-piperidyl]-N-[(1R)-1-(1-naphthyl)ethyl]benzamide] yielded a pIC50 of over 4.00.

For `Cc1ccc(N2CCN(C)CC2)cc1C(=O)N[C@H](C)c1cc(Cl)cc(-c2cnn(C)c2)c1` [Example 257, N-[(1R)-1-[3-Chloro-5-(1-methylpyrazol-4-yl)phenyl]ethyl]-2-methyl-5-(4-methylpiperazin-1-yl)benzamide], the pIC50 was over 5.70.

`Cc1ccc(N2CCN(C)CC2)cc1C(=O)N[C@H](C)c1cncc(Br)c1` [Example 193, N-[(1R)-1-(5-Bromo-3-pyridyl)ethyl]-2-methyl-5-(4-methylpiperazin-1-yl)benzamide] showed a pIC50 of over 4.00.

In the case of `Cc1ccc(N2CCN(C(=O)OC(C)(C)C)CC2)cc1C(=O)N[C@H](C)c1cccc2ccccc12` [Example 28, tert-Butyl 4-[4-methyl-3-[(1R)-1-(1-naphthyl)ethyl]carbamoyl]phenyl]piperazine-1-carboxylate], the pIC50 was over 4.00.

With `Cc1ccc(N2CCN(C)CC2)cc1C(=O)N[C@H](C)c1cccs1` [Example 191, 2-Methyl-5-(4-methylpiperazin-1-yl)-N-[(1R)-1-(2-thienyl)ethyl]benzamide hydrochloride salt] the pIC50 was over 4.00.

`C[C@@H](NC(=O)c1cccc(C(=O)NCCN(C)C)c1)c1cccc2ccccc12` [Example 174, N1-[2-(Dimethylamino)ethyl]-N3-[(1R)-1-(1-naphthyl)ethyl]benzene-1,3-dicarboxamide] showed a pIC50 of over 4.00.

For `Cc1ccc(N2CCN(C)CC2)cc1C(=O)N[C@H](C)c1cccc(C(=O)NCCO)c1` [Example 313, N-[(1R)-1-[3-(2-Hydroxyethylcarbamoyl)phenyl]ethyl]-2-methyl-5-(4-methylpiperazin-1-yl)benzamide], the pIC50 was over 4.70.

For `Cc1ccc(N2CCN(C)CC2)cc1C(=O)N(C)[C@H](C)c1cccc2ccccc12` [Example 35, N,2-Dimethyl-5-(4-methylpiperazin-1-yl)-N-[(1R)-1-(1-naphthyl)ethyl]benzamide], the pIC50 was over 4.00.

With `Cc1ccc(-c2cccc(CCN3CCOCC3)c2)cc1C(=O)N[C@H](C)c1cccc2ccccc12` [Example 141, 2-Methyl-5-[3-(2-morpholinoethyl)phenyl]-N-[(1R)-1-(1-naphthyl)ethyl]benzamide] the pIC50 was under 4.00.

Compound `CC(=O)N1CCC(c2cccc(C(=O)N[C@H](C)c3cccc4ccccc34)c2)CC1` [Example 7, 3-(1-Acetyl-4-piperidyl)-N-[(1R)-1-(1-naphthyl)ethyl]benzamide] has a pIC50 of under 4.00.

Compound `C[C@@H](NC(=O)c1cc(N2CCNC(C(F)(F)F)C2)ccc1Cl)c1cccc2ccccc12` (stereo partly drawn) [Example 132, 2-Chloro-N-[(1R)-1-(1-naphthyl)ethyl]-5-[3-(trifluoromethyl)piperazin-1-yl]benzamide] has a pIC50 of over 4.00.

For `C[C@@H](NC(=O)c1cccc(C(=O)N2CCN(C)CC2)c1)c1cccc2ccccc12` [Example 173, 3-(4-Methylpiperazine-1-carbonyl)-N-[(1R)-1-(1-naphthyl)ethyl]benzamide], the pIC50 was under 4.00.

For `Cc1ccc(N2CCN(C)CC2)cc1C(=O)N[C@H](C)c1cccc(CCC(=O)N(C)C)c1` [Example 84, N-[(1R)-1-[3-[3-(Dimethylamino)-3-oxo-propyl]phenyl]ethyl]-2-methyl-5-(4-methylpiperazin-1-yl)benzamide], the pIC50 was over 4.70.

Work on `COc1ccc([C@@H](C)NC(=O)c2cc(N3CC4(CNC4)C3)ccc2C)cc1OC` [Example 37, 5-(2,6-Diazaspiro[3.3]heptan-2-yl)-N-[(1R)-1-(3,4-dimethoxyphenyl)ethyl]-2-methyl-benzamide] yielded a pIC50 of over 4.70.
